The source made the active and inactive calls. The calls are words filed in the database; no cut-off is given here.
Legend:
[1] = Cytotoxicity against NRCM cells assessed as reduction in cell viability measured after 48 hrs by CCK-8 method; assay type: toxicity, cell-based; details: rat
[2] = system: NRCM; assay: Anticardiac hypertrophic activity in phenylephrine-induced hypertrophy in Sprague-Dawley rat NRCM cells assessed as reduction in NPPA mRNA expression level at 50 uM preincubated for 12 hrs followed by phenylephrine stimulation and measured after 48 hrs by qRT-PCR analysis; assay type: functional, cell-based; details: time 60.0 hrs
[3] = system: NRCM; assay: Anticardiac hypertrophic activity in phenylephrine-induced hypertrophy in Sprague-Dawley rat NRCM cells assessed as reduction in NPPB mRNA expression level at 50 uM preincubated for 12 hrs followed by phenylephrine stimulation and measured after 48 hrs by qRT-PCR analysis; assay type: functional, cell-based; details: time 60.0 hrs
[4] = system: NRCM; assay: Anticardiac hypertrophic activity in phenylephrine-induced hypertrophy in Sprague-Dawley rat NRCM cells assessed as reduction in inhibition of ANP level at 50 uM preincubated for 12 hrs followed by phenylephrine stimulation and measured after 48 hrs by Westernblot analysis; assay type: functional, cell-based; details: time 60.0 hrs
[5] = system: NRCM; assay: Anticardiac hypertrophic activity in phenylephrine-induced hypertrophy in Sprague-Dawley rat NRCM cells assessed as reduction in inhibition of MYH7 level at 50 uM preincubated for 12 hrs followed by phenylephrine stimulation and measured after 48 hrs by Westernblot analysis; assay type: functional, cell-based; details: time 60.0 hrs
[6] = system: NRCM; assay: Anticardiac hypertrophic activity in phenylephrine-induced hypertrophy in Sprague-Dawley rat NRCM cells assessed as attenuation of cardiomyocyte hypertrophy preincubated for 12 hrs followed by phenylephrine stimulation and measured after 48 hrs by 488-I Phalloidin/DAPI staining based fluorescence microscopic analysis; assay type: functional, cell-based; details: time 60.0 hrs

SMILES | CC50 at 48 h [1] | Activity [2] | Activity [3] | Activity [4] | Activity [5] | Activity [6]
C[C@@]12CC[C@@](C)(C1=O)[C@H]1C[C@H](C(=O)O)C[C@H]1C2 | > 50 µM | Active | Active | Active | Active | Active
COC(=O)[C@@H]1C[C@@H]2C[C@@H](C)[C@@H]3C(=O)C[C@]3(C)[C@H]2C1 | > 50 µM | Active | Active | Active | Active | Active
COC(=O)[C@@H]1C[C@@H]2C[C@@H](C)[C@@H]3OC(=O)C[C@]3(C)[C@H]2C1 | > 50 µM | Active | Active | Active | Active | Active
